Measured values published in PMC5218480 (PLoS ONE, 2017).

Test system: MV-4-11 cells
Experiment: Gene expression microarray analysis (Affymetrix PrimeView) and GSEA
Assay type: cell-based, human
Design: RFU PODN (11730768_x_at) / Fold change /veh PODN (11730768_x_at) / RFU LINC00158 (11744669_a_at) / Fold change /veh LINC00158 (11744669_a_at) / RFU DUSP10 (11751237_a_at) / Fold change /veh DUSP10 (11751237_a_at) / RFU ID3 (11757404_x_at) / Fold change /veh ID3 (11757404_x_at) / RFU PLEKHG5 (11737974_s_at) / Fold change /veh PLEKHG5 (11737974_s_at) / RFU LRRC4B (11730491_at) / Fold change /veh LRRC4B (11730491_at) / RFU GIMAP4 (11747438_a_at) / Fold change /veh GIMAP4 (11747438_a_at) / RFU KRT8 (11758183_x_at) / Fold change /veh KRT8 (11758183_x_at) / RFU CNN1 (11734310_a_at) / Fold change /veh CNN1 (11734310_a_at) / RFU VPS37D (11726825_at) / Fold change /veh VPS37D (11726825_at) / RFU C10orf10 (11716522_x_at) / Fold change /veh C10orf10 (11716522_x_at) / RFU KIR2DL2 /// KIR2DL4 /// KIR2DL5A /// KIR2DL5B /// KIR2DS1 /// KIR2DS2 /// KIR2DS3 /// KIR2DS4 /// KIR3DL3 /// KIR3DL3 /// KIR3DS1 (11738374_at) / Fold change /veh KIR2DL2 /// KIR2DL4 /// KIR2DL5A /// KIR2DL5B /// KIR2DS1 /// KIR2DS2 /// KIR2DS3 /// KIR2DS4 /// KIR3DL3 /// KIR3DL3 /// KIR3DS1 (11738374_at) / RFU C1QL1 (11718748_at) / Fold change /veh C1QL1 (11718748_at) / RFU TMPRSS4 (11747572_a_at) / Fold change /veh TMPRSS4 (11747572_a_at) / RFU HAMP (11756126_x_at) / Fold change /veh HAMP (11756126_x_at) / RFU RNFT2 (11725882_a_at) / Fold change /veh RNFT2 (11725882_a_at) / RFU NR4A2 (11747474_a_at) / Fold change /veh NR4A2 (11747474_a_at) / RFU ABCC12 (11746883_a_at) / Fold change /veh ABCC12 (11746883_a_at) / RFU TMEM136 (11760407_x_at) / Fold change /veh TMEM136 (11760407_x_at) / RFU CLDN22 /// WWC2 (11732394_at) / Fold change /veh CLDN22 /// WWC2 (11732394_at) / RFU HLA-DPB1 (11760878_x_at) / Fold change /veh HLA-DPB1 (11760878_x_at) / RFU SPINT1 (11716480_a_at) / Fold change /veh SPINT1 (11716480_a_at) / RFU GAP43 (11754022_s_at) / Fold change /veh GAP43 (11754022_s_at) / RFU A4GNT (11735810_at) / Fold change /veh A4GNT (11735810_at) / RFU PRB3 (11715151_x_at) / Fold change /veh PRB3 (11715151_x_at) / RFU TUBB4B (11761932_at) / Fold change /veh TUBB4B (11761932_at) / RFU CAPN14 (11732068_a_at) / Fold change /veh CAPN14 (11732068_a_at) / RFU TMCC2 (11721928_a_at) / Fold change /veh TMCC2 (11721928_a_at) / RFU IRGQ (11745062_a_at) / Fold change /veh IRGQ (11745062_a_at) / RFU FAM174B (11720279_a_at) / Fold change /veh FAM174B (11720279_a_at) / RFU TMPRSS4 (11748680_a_at) / Fold change /veh TMPRSS4 (11748680_a_at) / RFU FAM212B (11763350_a_at) / Fold change /veh FAM212B (11763350_a_at) / RFU PLEKHG5 (11743358_a_at) / Fold change /veh PLEKHG5 (11743358_a_at) / RFU ZSCAN30 (11745921_a_at) / Fold change /veh ZSCAN30 (11745921_a_at) / RFU CMKLR1 (11741424_a_at) / Fold change /veh CMKLR1 (11741424_a_at) / RFU LOC101060620 /// MAPK8IP1 (11723275_at) / Fold change /veh LOC101060620 /// MAPK8IP1 (11723275_at) / RFU SPTSSB (11747773_x_at) / Fold change /veh SPTSSB (11747773_x_at) / RFU PRSS12 (11739890_at) / Fold change /veh PRSS12 (11739890_at) / RFU BIN1 (11741810_x_at) / Fold change /veh BIN1 (11741810_x_at) / RFU WNT11 (11732464_a_at) / Fold change /veh WNT11 (11732464_a_at) / RFU C10orf10 (11716521_a_at) / Fold change /veh C10orf10 (11716521_a_at) / RFU C5orf56 (11738089_at) / Fold change /veh C5orf56 (11738089_at) / RFU CYB561 (11721691_x_at) / Fold change /veh CYB561 (11721691_x_at) / RFU ANKRD19P (11752326_a_at) / Fold change /veh ANKRD19P (11752326_a_at) / RFU OR2T12 /// OR2T33 /// OR2T8 (11738714_s_at) / Fold change /veh OR2T12 /// OR2T33 /// OR2T8 (11738714_s_at) / RFU VCAN (11748164_a_at) / Fold change /veh VCAN (11748164_a_at) / RFU JSRP1 (11732532_at) / Fold change /veh JSRP1 (11732532_at) / RFU KRTAP10-11 (11738290_x_at) / Fold change /veh KRTAP10-11 (11738290_x_at) / RFU MYO3A (11730013_a_at) / Fold change /veh MYO3A (11730013_a_at) / RFU EBF3 (11725865_a_at) / Fold change /veh EBF3 (11725865_a_at) / RFU CAMK2N1 (11719241_x_at) / Fold change /veh CAMK2N1 (11719241_x_at) / RFU C5orf56 (11738088_a_at) / Fold change /veh C5orf56 (11738088_a_at) / RFU OLFML3 (11715873_a_at) / Fold change /veh OLFML3 (11715873_a_at) / RFU LOC100653217 /// NTM (11731650_a_at) / Fold change /veh LOC100653217 /// NTM (11731650_a_at) / RFU MAPK11 (11762145_a_at) / Fold change /veh MAPK11 (11762145_a_at) / RFU FIZ1 (11724087_x_at) / Fold change /veh FIZ1 (11724087_x_at) / RFU OASL (11726364_x_at) / Fold change /veh OASL (11726364_x_at) / RFU SOX15 (11748057_x_at) / Fold change /veh SOX15 (11748057_x_at) / RFU CD79A (11719716_a_at) / Fold change /veh CD79A (11719716_a_at) / RFU HIST1H1D (11736915_at) / Fold change /veh HIST1H1D (11736915_at) / RFU CASKIN2 (11723855_a_at) / Fold change /veh CASKIN2 (11723855_a_at) / RFU LOC730098 (11760151_x_at) / Fold change /veh LOC730098 (11760151_x_at) / RFU OR4N2 (11742367_at) / Fold change /veh OR4N2 (11742367_at) / RFU PRRT2 (11749266_a_at) / Fold change /veh PRRT2 (11749266_a_at) / RFU SNX32 (11753110_a_at) / Fold change /veh SNX32 (11753110_a_at) / RFU CDHR5 (11726645_a_at) / Fold change /veh CDHR5 (11726645_a_at) / RFU RCAN1 (11760418_a_at) / Fold change /veh RCAN1 (11760418_a_at) / RFU FAM167A (11723789_a_at) / Fold change /veh FAM167A (11723789_a_at) / RFU FAM26E (11764081_at) / Fold change /veh FAM26E (11764081_at) / RFU ISYNA1 (11749810_s_at) / Fold change /veh ISYNA1 (11749810_s_at) / RFU ACY1 (11761880_at) / Fold change /veh ACY1 (11761880_at) / RFU 11764098_at / Fold change /veh 11764098_at / RFU SAMD14 (11745864_x_at) / Fold change /veh SAMD14 (11745864_x_at) / RFU NPB (11741838_a_at) / Fold change /veh NPB (11741838_a_at) / RFU TMPRSS6 (11731388_a_at) / Fold change /veh TMPRSS6 (11731388_a_at) / RFU KRTAP10-2 (11738614_at) / Fold change /veh KRTAP10-2 (11738614_at) / RFU ARHGAP8 /// PRR5-ARHGAP8 (11727945_x_at) / Fold change /veh ARHGAP8 /// PRR5-ARHGAP8 (11727945_x_at) / RFU KRTAP5-7 /// NADSYN1 (11734609_at) / Fold change /veh KRTAP5-7 /// NADSYN1 (11734609_at) / RFU RASL12 (11751679_a_at) / Fold change /veh RASL12 (11751679_a_at) / RFU CDKN2B (11736163_a_at) / Fold change /veh CDKN2B (11736163_a_at) / RFU PRF1 (11729649_at) / Fold change /veh PRF1 (11729649_at) / RFU, ZNF638 /// ZNF638-IT1 / Fold change vs veh, ZNF638 /// ZNF638-IT1 / RFU, PANK3 / Fold change vs veh, PANK3 / RFU, SH3YL1 / Fold change vs veh, SH3YL1 / RFU, ZEB2 / Fold change vs veh, ZEB2 / RFU, NRIP1 / Fold change vs veh, NRIP1 / RFU, PTTG1IP / Fold change vs veh, PTTG1IP / RFU, CAPN2 / Fold change vs veh, CAPN2 / RFU, MED14 / Fold change vs veh, MED14 / RFU, SNORA58 / Fold change vs veh, SNORA58 / RFU, C1orf63 / Fold change vs veh, C1orf63 / RFU, LRRFIP1 / Fold change vs veh, LRRFIP1 / RFU, NDUFAF7 / Fold change vs veh, NDUFAF7 / RFU, SLC12A2 / Fold change vs veh, SLC12A2 / RFU, IBTK / Fold change vs veh, IBTK / RFU, ESF1 / Fold change vs veh, ESF1 / Fold change vs veh, TMEM50B / RFU, TAOK1 / Fold change vs veh, TAOK1 / RFU, ACBD3 / Fold change vs veh, ACBD3 / RFU, TMA16 / Fold change vs veh, TMA16 / RFU, RWDD3 / Fold change vs veh, RWDD3 / RFU, BCAT1 / Fold change vs veh, BCAT1 / RFU, EDEM3 / Fold change vs veh, EDEM3 / RFU, TMEM33 / Fold change vs veh, TMEM33 / RFU, WDR75 / Fold change vs veh, WDR75 / RFU, AHCTF1 / Fold change vs veh, AHCTF1 / RFU, TFRC / Fold change vs veh, TFRC / RFU, ZDHHC17 / Fold change vs veh, ZDHHC17 / RFU, NOM1 / Fold change vs veh, NOM1 / RFU, ARL8B / Fold change vs veh, ARL8B / RFU, ZBTB11 / Fold change vs veh, ZBTB11 / RFU, TAMM41 / Fold change vs veh, TAMM41 / RFU, KIAA1704 /// LOC100996395 / Fold change vs veh, KIAA1704 /// LOC100996395 / RFU, ING1 / Fold change vs veh, ING1 / RFU, TRMT61B / Fold change vs veh, TRMT61B / RFU, FUBP3 / Fold change vs veh, FUBP3 / RFU, TP53 / Fold change vs veh, TP53 / RFU, TNKS2 / Fold change vs veh, TNKS2 / RFU, ZFP14 / Fold change vs veh, ZFP14 / RFU, ACTR2 / Fold change vs veh, ACTR2 / RFU, PPP3R1 / Fold change vs veh, PPP3R1 / RFU, PIK3R1 / Fold change vs veh, PIK3R1 / RFU, HNRNPA1 / Fold change vs veh, HNRNPA1 / RFU, RNF170 / Fold change vs veh, RNF170 / RFU, ZNF28 / Fold change vs veh, ZNF28 / RFU, RNGTT / Fold change vs veh, RNGTT / RFU, OGT / Fold change vs veh, OGT / RFU, BRD1 / Fold change vs veh, BRD1 / RFU, MARS / Fold change vs veh, MARS / RFU, ZNF655 / Fold change vs veh, ZNF655 / RFU, FAHD1 / Fold change vs veh, FAHD1 / RFU, BDP1 / Fold change vs veh, BDP1 / RFU, LRRCC1 / Fold change vs veh, LRRCC1 / RFU, ARID1A / Fold change vs veh, ARID1A / RFU, ZNF146 / Fold change vs veh, ZNF146 / RFU, ZNF330 / Fold change vs veh, ZNF330 / RFU, GPN3 / Fold change vs veh, GPN3 / RFU, C9orf123 / Fold change vs veh, C9orf123 / RFU, N4BP2L2 / Fold change vs veh, N4BP2L2 / RFU, ARFIP1 / Fold change vs veh, ARFIP1 / RFU, FAM179B / Fold change vs veh, FAM179B / RFU, BCL10 / Fold change vs veh, BCL10 / RFU, UHRF1BP1L / Fold change vs veh, UHRF1BP1L / RFU, BET1 / Fold change vs veh, BET1 / RFU, CNOT2 / Fold change vs veh, CNOT2 / RFU, ZNF268 / Fold change vs veh, ZNF268 / Fold change vs veh, ZNF507 / RFU, DGCR2 / Fold change vs veh, DGCR2 / RFU, WDSUB1 / Fold change vs veh, WDSUB1 / Fold change vs veh, HSP90B1 /// MIR3652 / RFU, ADSS / Fold change vs veh, ADSS / RFU, GK / Fold change vs veh, GK / RFU, ZNF148 / Fold change vs veh, ZNF148 / RFU, TAF9 / Fold change vs veh, TAF9 / RFU, SLC1A5 / Fold change vs veh, SLC1A5 / RFU, SLMO2 / Fold change vs veh, SLMO2 / RFU, ABCC4 / Fold change vs veh, ABCC4 / RFU, LOC101060439 /// RAP1B / Fold change vs veh, LOC101060439 /// RAP1B / RFU, RFX7 / Fold change vs veh, RFX7 / RFU, GTPBP10 / Fold change vs veh, GTPBP10 / RFU, CNEP1R1 / Fold change vs veh, CNEP1R1 / RFU, BIVM-ERCC5 /// ERCC5 / Fold change vs veh, BIVM-ERCC5 /// ERCC5 / RFU, ILF3 / Fold change vs veh, ILF3 / RFU 11762660_at / Fold change /veh 11762660_at / RFU VCAN (11757783_s_at) / Fold change /veh VCAN (11757783_s_at) / RFU DDX43 (11728927_at) / Fold change /veh DDX43 (11728927_at) / RFU KRT8 (11758188_x_at) / Fold change /veh KRT8 (11758188_x_at) / RFU NKD1 (11759106_at) / Fold change /veh NKD1 (11759106_at) / RFU SRD5A1 (11742802_a_at) / Fold change /veh SRD5A1 (11742802_a_at) / RFU TPSAB1 /// TPSB2 (11721975_s_at) / Fold change /veh TPSAB1 /// TPSB2 (11721975_s_at) / RFU GSTM3 (11746129_a_at) / Fold change /veh GSTM3 (11746129_a_at) / RFU IL23R (11737362_x_at) / Fold change /veh IL23R (11737362_x_at) / RFU TMEM51 (11727254_a_at) / Fold change /veh TMEM51 (11727254_a_at) / RFU PIWIL2 (11732686_x_at) / Fold change /veh PIWIL2 (11732686_x_at) / RFU ORM1 (11744905_x_at) / Fold change /veh ORM1 (11744905_x_at) / RFU CCDC152 (11743942_at) / Fold change /veh CCDC152 (11743942_at) / RFU ECM1 (11717891_a_at) / Fold change /veh ECM1 (11717891_a_at) / RFU IL23R (11748794_a_at) / Fold change /veh IL23R (11748794_a_at) / RFU TNFAIP8L3 (11732012_x_at) / Fold change /veh TNFAIP8L3 (11732012_x_at) / RFU MBOAT4 (11741988_at) / Fold change /veh MBOAT4 (11741988_at) / RFU 11764193_at / Fold change /veh 11764193_at / RFU TMEM53 (11763286_at) / Fold change /veh TMEM53 (11763286_at) / RFU MAGEB2 (11727129_at) / Fold change /veh MAGEB2 (11727129_at) / RFU TMEM200A (11744735_a_at) / Fold change /veh TMEM200A (11744735_a_at) / RFU CCDC152 (11751479_a_at) / Fold change /veh CCDC152 (11751479_a_at) / RFU FAM211A (11726209_a_at) / Fold change /veh FAM211A (11726209_a_at) / RFU RGS16 (11746705_a_at) / Fold change /veh RGS16 (11746705_a_at) / RFU VCAN (11755009_s_at) / Fold change /veh VCAN (11755009_s_at) / RFU RHOB (11743442_s_at) / Fold change /veh RHOB (11743442_s_at) / RFU RGS16 (11720943_a_at) / Fold change /veh RGS16 (11720943_a_at) / RFU RGS16 (11720944_at) / Fold change /veh RGS16 (11720944_at) / RFU, VPS4B / Fold change vs veh, VPS4B / RFU, CREB1 / Fold change vs veh, CREB1 / RFU, DNAJC13 / Fold change vs veh, DNAJC13 / RFU, GNAQ / Fold change vs veh, GNAQ / RFU, CDK5R1 / Fold change vs veh, CDK5R1 / RFU, ZRANB3 / Fold change vs veh, ZRANB3 / RFU, CUL4A / Fold change vs veh, CUL4A / RFU, CCNY / Fold change vs veh, CCNY / RFU, UFL1 / Fold change vs veh, UFL1 / RFU, COG3 / Fold change vs veh, COG3 / RFU, DIAPH2 / Fold change vs veh, DIAPH2 / RFU, SKA2 / Fold change vs veh, SKA2 / RFU, AFF3 / Fold change vs veh, AFF3 / RFU, LMF1 / Fold change vs veh, LMF1 / RFU, IPO11 / Fold change vs veh, IPO11 / RFU, DFFB / Fold change vs veh, DFFB / RFU, FOXP1 / Fold change vs veh, FOXP1 / RFU, CARD8 / Fold change vs veh, CARD8 / RFU, STRN3 / Fold change vs veh, STRN3 / RFU, ADK / Fold change vs veh, ADK / RFU, RASSF2 / Fold change vs veh, RASSF2 / RFU, WIPF1 / Fold change vs veh, WIPF1 / RFU, LARP1B / Fold change vs veh, LARP1B / RFU, RASA1 / Fold change vs veh, RASA1 / RFU, RB1 / Fold change vs veh, RB1 / RFU, PPFIA1 / Fold change vs veh, PPFIA1 / RFU, MAT2A / Fold change vs veh, MAT2A / RFU, CCT5 / Fold change vs veh, CCT5 / RFU, WDR92 / Fold change vs veh, WDR92 / RFU, CUX1 / Fold change vs veh, CUX1 / RFU, TTC7A / Fold change vs veh, TTC7A / RFU, TMEM135 / Fold change vs veh, TMEM135 / RFU, DEPTOR / Fold change vs veh, DEPTOR / RFU, CPM / Fold change vs veh, CPM / RFU, DNAJB6 / Fold change vs veh, DNAJB6 / RFU, CACNA2D3 / Fold change vs veh, CACNA2D3 / RFU, DTX4 / Fold change vs veh, DTX4 / RFU, TFCP2 / Fold change vs veh, TFCP2 / RFU, GMCL1 /// GMCL1P1 / Fold change vs veh, GMCL1 /// GMCL1P1 / RFU, AEBP2 / Fold change vs veh, AEBP2 / RFU, SNHG1 /// SNORD22 /// SNORD25 /// SNORD26 /// SNORD27 /// SNORD28 /// SNORD29 /// SNORD31 / Fold change vs veh, SNHG1 /// SNORD22 /// SNORD25 /// SNORD26 /// SNORD27 /// SNORD28 /// SNORD29 /// SNORD31 / Fold change (Aza/veh), C12orf56 (ProbeSet 11735607_a_at) / Fold change (ACY-1035/veh), C12orf56 (ProbeSet 11735607_a_at) / Fold change (Aza/veh), FGFR1OP (ProbeSet 11751329_s_at) / Fold change (ACY-1035/veh), FGFR1OP (ProbeSet 11751329_s_at) / Fold change (Aza/veh), VPS36 (ProbeSet 11739960_a_at) / Fold change (ACY-1035/veh), VPS36 (ProbeSet 11739960_a_at) / RFU SYPL1 (11715823_x_at) / Fold change /veh SYPL1 (11715823_x_at) / RFU IGFBP7 (11715501_s_at) / Fold change /veh IGFBP7 (11715501_s_at) / RFU REEP3 (11722064_at) / Fold change /veh REEP3 (11722064_at) / RFU IGLL1 (11728026_x_at) / Fold change /veh IGLL1 (11728026_x_at): dose or concentration left out as unconfirmed
Settings: ProbeSet 11756954_s_at; LIST B

Structure (SMILES): Nc1ncn([C@@H]2O[C@H](CO)[C@@H](O)[C@H]2O)c(=O)n1 [azacitidine]
- RFU, ZEB2: 1324.44 RFU
